One assay concerns the target Tet(X3). The experiment in a line: biolayer interferometry. In kind it is binding, Acinetobacter baumannii. On the technique in general: In BLI a coated tip is dipped into the sample, and binding shifts an interference pattern.
In another assay the target is Tet(X4) (Escherichia coli, UniProt A0A3T0V9Y5). The experiment in a line: biolayer interferometry. In kind it is binding.
Sequence of Tet(X4) (A0A3T0V9Y5 1-385): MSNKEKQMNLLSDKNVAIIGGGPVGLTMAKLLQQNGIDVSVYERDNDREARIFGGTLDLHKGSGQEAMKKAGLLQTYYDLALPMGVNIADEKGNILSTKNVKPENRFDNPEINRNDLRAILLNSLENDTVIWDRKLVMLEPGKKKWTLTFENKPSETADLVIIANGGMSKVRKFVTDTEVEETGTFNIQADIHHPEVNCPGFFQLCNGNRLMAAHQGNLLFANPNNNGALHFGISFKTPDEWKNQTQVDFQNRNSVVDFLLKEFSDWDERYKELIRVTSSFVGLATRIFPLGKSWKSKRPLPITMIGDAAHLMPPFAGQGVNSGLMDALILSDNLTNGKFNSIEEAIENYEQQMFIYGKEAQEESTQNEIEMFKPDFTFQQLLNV

As a reminder, the Kd is a measure of binding affinity in units of concentration. For the compound `CC1=CC(=O)c2c(O)cccc2C1=O` [plumbagin], the dissociation constant Kd amounted to 200 µM at Tet(X3) and 1600 µM on Tet(X4).

Values taken from article PMC8933826 (EBioMedicine, 2022).
